Results on 16 compounds are retold here after US9714249B2 (Novartis AG, priority 2013, dated 2017).

The target of one assay is BRD4 (His-Brd4(44-477)) (Homo sapiens (Human), UniProt O60885). As to the kind of experiment: TR-FRET in-vitro binding assay for BRD4. The conditions noted are these: acetyl-histone H4 peptide. The protocol: All assays were performed in 384 well microtiter plates. Each assay plate contained 8-point serial dilutions for 40 test compounds, plus 16 high- and 16 low controls. Liquid handling and incubation steps were done on an Innovadyne Nanodrop Express equipped with a robotic arm (Thermo CatX, Perkin Elmer/Caliper Twister II) and an incubator (Liconic STX40, Thermo Cytomat 2C450). The assay plates were prepared by addition of 50 nl per well of compound solution in 90% DMSO HummingBird nanodispenser (Zinsser Analytic). […] Reactions were incubated at 30° C. for 35 minutes. […] After 35 minutes incubation at 30° C., plates were measured in a Perkin Elmer EnVision multilabel reader.
Test compounds were dissolved in DMSO (10 mM) and transferred into 1.4 mL flat bottom or V-shaped Matrix tubes carrying a unique 2D matrix. The stock solutions were stored at […] if not used immediately. For the test procedure the vials were defrosted and identified by a scanner whereby a working sheet was generated that guided the subsequent working steps. Compound dilutions were made in 96 well plates. This format enabled the assay of maximally 40 individual test compounds at 8 concentrations (single points) including 4 reference compounds, if desired (known BET inhibitors from the prior art, for this and other assays of the type disclosed herein). The dilution protocol included the production of “pre-dilution plates”, “master plates” and “assay plates”.
Pre-dilution plates: 96 polypropylene well plates were used as pre-dilution plates. A total of 4 pre-dilution plates were prepared including 10 test compounds each on the plate positions A1-A10, one standard compound at A11 and one DMSO control at A12. All dilution steps were done on a HamiltonSTAR robot. […] These plates were used directly for the assay which was performed in a total volume of 13.55 μL. […] Cell Growth Inhibition Assay
Background: TR-FRET usually uses a lanthanide donor and a delayed reading to cut background.

The next assay deals with K-562 cells. As to the kind of experiment: Cell growth inhibition assay (CellTiter-Glo), K-562. It counts as cell-based, human. The conditions noted are these: K-562, 4 days; for GI50: half-maximal growth inhibition; for K-562 TGI: total growth inhibition. The protocol:
The human leukemia cell lines MV-4-11, THP-1 and K-562 were employed to characterize the effect of BET inhibitors on cellular proliferation and viability. Cells were obtained from the American Type Culture Collection (ATCC) and cultured at 37° C. in a humidified 5% CO2 incubator in the following media: MV-4-11: DMEM high glucose (Animed #1-26F01-I), 10% FCS (Animed #2-01F26-I), 4 mM L-Glutamine (Animed #5-10K50), 1 mM Sodium Pyruvate (Animed # G03625P), 1× Penicillin-Streptomycin (Animed # F12478P); K-562: Iscove's MEM (Animed #1-28F16-I), 10% FCS (Animed #2-01F26-I), 4 mM L-Glutamine (Animed #5-10K50), 1× Penicillin-Streptomycin (Animed # F12478P); THP-1: RPMI-1640 (Animed #1-41F01-I), 10% FCS (Animed #2-01F26-I), 2 mM L-Glutamine (Animed #5-10K50), 10 mM HEPES (Animed #5-31F100), 1 mM Sodium Pyruvate (Animed # G03625P), 1× Penicillin-Streptomycin (Animed # F12478P). The AML lines MV-4-11 and THP-1 are very sensitive to BET inhibitors and show massive cell death upon BET inhibition (Zuber et al., Nature, 478 (2011), 524-8). Compound-mediated suppression of cell proliferation/viability was assessed by quantification of cellular ATP levels using the CellTiter-Glo (CTG) reagent (Promega). Briefly, cells were seeded in 20 μl fresh medium into 384-well plates, followed by addition of 5 μl medium containing compound dilutions at 5-fold their final intended concentration. Dose-response effects were assessed by 3-fold serial dilutions of the test compound, starting at 10 μM. Following incubation of the cells for 4 days at 37° C. and 5% CO2, the effect of inhibitors on cell viability was quantified following addition of 20 μl CTG and luminescence quantification (integration time: 100 ms) as per vendor manual, using a correspondingly equipped Tecan M200 multi-mode platereader (TECAN, Switzerland). For data analysis, the assay background value determined in wells containing medium, but no cells, was subtracted from all data points. To enable differentiation of cytotoxic from cytostatic compounds, the number of viable cells is assessed relative to that observed at the time of compound addition using a separate cell plate (day 0). The effect of a particular test compound concentration on cell proliferation/viability is expressed as percentage of the background- and day 0-corrected luminescence reading obtained for cells treated with vehicle only (DMSO, 0.1% final concentration), which is set as 100%, whereas that luminescence reading for wells containing medium is set as −100%. Compound concentrations leading to half-maximal (1050) and total growth inhibition (TGI) were determined using standard four parameter curve fitting.
(In general: ATP-based viability assays read luminescence as a measure of living cells.)

A value given as a limit tells only on which side of the number the result lay.

For `CNC1=C(C(=N)C2CC2)C(=O)N(c2cc(C)c(=O)n(C)c2)[C@@H]1c1ccc(Cl)cc1` [Example 2], the IC50 (in general, the point on the concentration scale where inhibition reaches its midpoint) at BRD4 (His-Brd4(44-477)) is 16 nM. For the same compound, in the assay on K-562 cells, the GI50 (commonly the concentration at which growth is held to half of that of the control) is 121 nM and the “K-562 TGI” value is over 10000 nM.
In turn, `Cc1nn(C)c2c1C(=O)N(c1cc(C)c(=O)n(C)c1)C2c1ccc(Cl)cc1` (stereo not drawn) [Example 10, 6-(4-chlorophenyl)-5-(1,5-dimethyl-6-oxo-1,6-dihydropyridin-3-yl)-1,3-dimethyl-5,6-dihydropyrrolo[3,4-c]pyrazol-4(1H)-one] came in with an IC50 at BRD4 (His-Brd4(44-477)) of 89 nM. It took 336 nM to inhibit growth in the assay on K-562 cells (Homo sapiens, K562, 96 h) by half (GI50). For the same compound, the “K-562 TGI” value in the assay on K-562 cells is over 10000 nM.
In the same order, the values of `Cc1cc(N2C(=O)c3c(C4CC4)n[nH]c3[C@H]2c2ccc(Cl)cc2)cn(C)c1=O` [Example 24, (R)-6-(4-chlorophenyl)-3-cyclopropyl-5-(1,5-dimethyl-6-oxo-1,6-dihydropyridin-3-yl)-5,6-dihydropyrrolo[3,4-c]pyrazol-4(1H)-one] are 73 nM, 103 nM and over 10000 nM.
`COc1ncccc1-n1nc2c(c1C)C(=O)N(c1cc(Cl)c(=O)n(C)c1)C2c1ccc(Cl)cc1` (stereo not drawn) [Example 7b, 5-(5-chloro-1-methyl-6-oxo-1,6-dihydropyridin-3-yl)-6-(4-chlorophenyl)-2-(2-methoxypyridin-3-yl)-3-methyl-5,6-dihydropyrrolo[3,4-c]pyrazol-4(2H)-one]: at BRD4 (His-Brd4(44-477)), the IC50 was 41 nM. In the assay on K-562 cells (Homo sapiens, K562, 96 h), this compound yielded a GI50 of 548 nM. The “K-562 TGI” value in the assay on K-562 cells was over 10000 nM.
In the same order, the values of `Cc1cc(N2C(=O)c3c(C4CC4)nn(C)c3C2c2ccc(Cl)cc2)cn(C)c1=O` (stereo not drawn) [Example 1, 6-(4-chlorophenyl)-3-cyclopropyl-5-(1,5-dimethyl-6-oxo-1,6-dihydropyridin-3-yl)-1-methyl-5,6-dihydropyrrolo[3,4-c]pyrazol-4(1H)-one] are 28 nM, 141 nM and over 10000 nM.
In the same order, the values of `COCCn1nc(C2CC2)c2c1C(c1ccc(Cl)cc1)N(c1cc(C)c(=O)n(C)c1)C2=O` (stereo not drawn) [Example 4, 6-(4-chlorophenyl)-3-cyclopropyl-5-(1,5-dimethyl-6-oxo-1,6-dihydropyridin-3-yl)-1-(2-methoxyethyl)-5,6-dihydropyrrolo[3,4-c]pyrazol-4(1H)-one] are 14 nM, 109 nM and over 10000 nM.
In the same order, the values of `COc1ncccc1-n1nc(C)c2c1[C@@H](c1ccc(Cl)cc1)N(c1cc(C)c(=O)n(C)c1)C2=O` [Example 25, (R)-6-(4-chlorophenyl)-5-(1,5-dimethyl-6-oxo-1,6-dihydropyridin-3-yl)-1-(2-methoxypyridin-3-yl)-3-methyl-5,6-dihydropyrrolo[3,4-c]pyrazol-4(1H)-one] are 150 nM, 206 nM and over 10000 nM.
Take `COc1ncc(-n2nc(C)c3c2C(c2ccc(Cl)cc2)N(c2cc(C)c(=O)n(C)c2)C3=O)cn1` (stereo not drawn) [Example 21a, 6-(4-chlorophenyl)-5-(1,5-dimethyl-6-oxo-1,6-dihydropyridin-3-yl)-1-(2-methoxypyrimidin-5-yl)-3-methyl-5,6-dihydropyrrolo[3,4-c]pyrazol-4(1H)-one]: at BRD4 (His-Brd4(44-477)), the IC50 turned out to be 71 nM. In the assay with K-562 cells (Homo sapiens, K562, 96 h), halving of growth (GI50) required 404 nM. Also, the “K-562 TGI” value in the assay with K-562 cells was over 10000 nM.
In the same order, the values of `COc1ncccc1-c1nn(C)c2c1C(=O)N(c1cc(C)c(=O)n(C)c1)[C@@H]2c1ccc(Cl)cc1` [Example 16, (R)-6-(4-chlorophenyl)-5-(1,5-dimethyl-6-oxo-1,6-dihydropyridin-3-yl)-3-(2-methoxypyridin-3-yl)-1-methyl-5,6-dihydropyrrolo[3,4-c]pyrazol-4(1H)-one] are 56 nM, 197 nM and over 10000 nM.
With `Cc1[nH]nc2c1C(=O)N(c1cc(Cl)c(=O)n(C)c1)C2c1ccc(Cl)cc1` (stereo not drawn) [Example 6, 5-(5-chloro-1-methyl-6-oxo-1,6-dihydropyridin-3-yl)-6-(4-chlorophenyl)-3-methyl-5,6-dihydropyrrolo[3,4-c]pyrazol-4(2H)-one], on BRD4 (His-Brd4(44-477)), the IC50 turned out to be 120 nM. The compound also returned a GI50 in the assay with K-562 cells (Homo sapiens, K562, 96 h) of 558 nM. For the same compound, the “K-562 TGI” value in the assay on K-562 cells is over 10000 nM.
In the same order, the values of `COc1ncc(-n2nc(C)c3c2C(c2ccc(Cl)cc2)N(c2cc(Cl)c(=O)n(C)c2)C3=O)cn1` (stereo not drawn) [Example 8a, 5-(5-chloro-1-methyl-6-oxo-1,6-dihydropyridin-3-yl)-6-(4-chlorophenyl)-1-(2-methoxypyrimidin-5-yl)-3-methyl-5,6-dihydropyrrolo[3,4-c]pyrazol-4(1H)-one] are 170 nM, 991 nM and over 10000 nM.
The like results for `Cc1nn(C2CC2)c2c1C(=O)N(c1cc(C)c(=O)n(C)c1)C2c1ccc(Cl)cc1` (stereo not drawn) [Example 11, 6-(4-chlorophenyl)-1-cyclopropyl-5-(1,5-dimethyl-6-oxo-1,6-dihydropyridin-3-yl)-3-methyl-5,6-dihydropyrrolo[3,4-c]pyrazol-4(1H)-one] were, in that order, 40 nM, 127 nM and over 10000 nM.
In the same order, the values of `Cc1cc(N2C(=O)c3c(C4CC4)nn(-c4ccnn4C)c3[C@H]2c2ccc(Cl)cc2)cn(C)c1=O` [Example 22, (R)-6-(4-chlorophenyl)-3-cyclopropyl-5-(1,5-dimethyl-6-oxo-1,6-dihydropyridin-3-yl)-1-(1-methyl-1H-pyrazol-5-yl)-5,6-dihydropyrrolo[3,4-c]pyrazol-4(1H)-one] are 140 nM, 278 nM and over 10000 nM.
At BRD4 (His-Brd4(44-477)), `Cc1cc(N2C(=O)c3c(C4CC4)nn(CCO)c3C2c2ccc(Cl)cc2)cn(C)c1=O` (stereo not drawn) [Example 3, 6-(4-chlorophenyl)-3-cyclopropyl-5-(1,5-dimethyl-6-oxo-1,6-dihydropyridin-3-yl)-1-(2-hydroxyethyl)-5,6-dihydropyrrolo[3,4-c]pyrazol-4(1H)-one] had an IC50 of 43 nM. This compound registered a GI50 with K-562 cells (Homo sapiens, K562, 96 h) of 268 nM. In the assay on K-562 cells, the “K-562 TGI” value is over 10000 nM.
`Cc1nn(-c2cccnc2F)c2c1C(=O)N(c1cc(C)c(=O)n(C)c1)C2c1ccc(Cl)cc1` (stereo not drawn) [Example 19, 6-(4-chlorophenyl)-5-(1,5-dimethyl-6-oxo-1,6-dihydropyridin-3-yl)-1-(2-fluoropyridin-3-yl)-3-methyl-5,6-dihydropyrrolo[3,4-c]pyrazol-4(1H)-one] showed an IC50 on BRD4 (His-Brd4(44-477)) of 100 nM. Besides, growth in the assay with K-562 cells (Homo sapiens, K562, 96 h) was halved (GI50) at 302 nM. Moreover, the “K-562 TGI” value in the assay with K-562 cells was over 10000 nM.
In the same order, the values of `COc1ncccc1-c1nn(C)c2c1C(=O)N(c1cc(C)c(=O)n(C)c1)C2c1ccc(Cl)cc1` (stereo not drawn) [Example 15, 6-(4-chlorophenyl)-5-(1,5-dimethyl-6-oxo-1,6-dihydropyridin-3-yl)-3-(2-methoxypyridin-3-yl)-1-methyl-5,6-dihydropyrrolo[3,4-c]pyrazol-4(1H)-one] are 62.5 nM, 640 nM and over 10000 nM.
